Several values for one entry are separate records, joined by “and”; a condition that tells them apart may be missing. Equal entries are not always repeated.
System: 454973-116-R2-J3-PDC spheroids, percent test/control viability
Test: Anticancer human tumor 454973-116-R2-J3-PDC patient-derived pancreatic carcinoma cell line growth inhibition [CLK]
Conditions: spheroids with HUVEC and MSC; for viability, T/C: stronger effect = lower value; active = viability on the fitted dose curve at most 10% of control; inactive = the rest
Summary of the method: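 Multi-cell-type spheroids combined patient-derived tumor cells with HUVEC endothelial cells and human mesenchymal stem cells. Paired agents were dosed in half-log steps down from about clinical Cmax, or from 10 microM where Cmax was unknown.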

[1] = curve of first compound, second compound 0.0316 µM
[2] = curve of first compound, second compound 0.1 µM
[3] = curve of first compound, second compound 0.316 µM
[4] = curve of first compound, second compound 1 µM
[5] = curve of first compound, second compound 3.16 µM
[6] = curve of first compound, second compound 10 µM
[7] = second compound 0.0316 µM, first compound 0.0316 µM
[8] = second compound 0.0316 µM, first compound 0.1 µM
[9] = second compound 0.0316 µM, first compound 0.316 µM
[10] = second compound 0.0316 µM, first compound 1 µM
[11] = second compound 0.0316 µM, first compound 3.16 µM
[12] = second compound 0.0316 µM, first compound 10 µM
[13] = second compound 0.1 µM, first compound 0.0316 µM
[14] = second compound 0.1 µM, first compound 0.1 µM
[15] = second compound 0.1 µM, first compound 0.316 µM
[16] = second compound 0.1 µM, first compound 1 µM
[17] = second compound 0.1 µM, first compound 3.16 µM
[18] = second compound 0.1 µM, first compound 10 µM
[19] = second compound 0.316 µM, first compound 0.0316 µM
[20] = second compound 0.316 µM, first compound 0.1 µM
[21] = second compound 0.316 µM, first compound 0.316 µM
[22] = second compound 0.316 µM, first compound 1 µM
[23] = second compound 0.316 µM, first compound 3.16 µM
[24] = second compound 0.316 µM, first compound 10 µM
[25] = second compound 1 µM, first compound 0.0316 µM
[26] = second compound 1 µM, first compound 0.1 µM
[27] = second compound 1 µM, first compound 0.316 µM
[28] = second compound 1 µM, first compound 1 µM
[29] = second compound 1 µM, first compound 3.16 µM
[30] = second compound 1 µM, first compound 10 µM
[31] = second compound 3.16 µM, first compound 0.0316 µM
[32] = second compound 3.16 µM, first compound 0.1 µM
[33] = second compound 3.16 µM, first compound 0.316 µM
[34] = second compound 3.16 µM, first compound 1 µM
[35] = second compound 3.16 µM, first compound 3.16 µM
[36] = second compound 3.16 µM, first compound 10 µM
[37] = second compound 10 µM, first compound 0.0316 µM
[38] = second compound 10 µM, first compound 0.1 µM
[39] = second compound 10 µM, first compound 0.316 µM
[40] = second compound 10 µM, first compound 1 µM
[41] = second compound 10 µM, first compound 3.16 µM
[42] = second compound 10 µM, first compound 10 µM
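Note: spheroids exposed to compounds for 7 days before readout.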

CC(CO)NC(=O)c1cc(-c2ccc(Cl)cc2)nn(-c2cnn(C)c2)c1=O (configuration not stated) + CNC(=O)c1ccc(Nc2nc(OC3CCCC3)c3c(-c4ccc5nc(C)oc5c4)c[nH]c3n2)c(OC)c1
inactive: viability, T/C [7] 105% | viability, T/C [8] 96.5% | viability, T/C [9] 111% | viability, T/C [10] 112% | viability, T/C [11] 100% | viability, T/C [12] 77% | viability, T/C [13] 105% | viability, T/C [14] 105% | viability, T/C [15] 96.2% | viability, T/C [16] 99.7% | viability, T/C [17] 101% | viability, T/C [18] 80.8% | viability, T/C [19] 46% | viability, T/C [20] 41.3% | viability, T/C [21] 47.2% | viability, T/C [22] 37.1% | viability, T/C [23] 45.2% | viability, T/C [24] 43.5% | viability, T/C [25] 33.7% | viability, T/C [26] 32.9% | viability, T/C [27] 32.8% | viability, T/C [28] 31.6% | viability, T/C [29] 30.8% | viability, T/C [30] 32.1% | viability, T/C [31] 24.5% | viability, T/C [32] 31.7% | viability, T/C [33] 30.2% | viability, T/C [34] 30.5% | viability, T/C [35] 34.9% | viability, T/C [36] 29% | viability, T/C [37] 30.3% | viability, T/C [38] 31.7% | viability, T/C [39] 31.8% | viability, T/C [40] 27.6% | viability, T/C [41] 29.3% | viability, T/C [42] 24.7%
< 0.0316 µM: IC50 [3] | IC50 [4] | IC50 [5] | IC50 [6]
> 10 µM: IC50 [1] | IC50 [2]

Nc1ccccc1NC(=O)c1ccc(CNC(=O)OCc2cccnc2)cc1 + CNC(=O)c1ccc(Nc2nc(OC3CCCC3)c3c(-c4ccc5nc(C)oc5c4)c[nH]c3n2)c(OC)c1
1.62 µM: IC50 [1]
inactive: viability, T/C [7] 97.2% | viability, T/C [8] 102% | viability, T/C [9] 87.2% | viability, T/C [10] 69.4% | viability, T/C [11] 25.1% | viability, T/C [13] 107% | viability, T/C [14] 95.9% | viability, T/C [15] 91.8% | viability, T/C [16] 69% | viability, T/C [17] 26.8% | viability, T/C [19] 46.9% | viability, T/C [20] 40.4% | viability, T/C [21] 42.2% | viability, T/C [22] 31.3% | viability, T/C [23] 19% | viability, T/C [25] 29.1% | viability, T/C [26] 27.1% | viability, T/C [27] 23.6% | viability, T/C [28] 28.6% | viability, T/C [29] 16.8% | viability, T/C [30] 3.41% | viability, T/C [31] 28.7% | viability, T/C [32] 30.1% | viability, T/C [33] 24.4% | viability, T/C [34] 27.1% | viability, T/C [35] 17.2% | viability, T/C [37] 26.9% | viability, T/C [38] 24.5% | viability, T/C [39] 21.1% | viability, T/C [40] 21.8% | viability, T/C [41] 16.8%
1.66 µM: IC50 [2]
active: viability, T/C [12] 5.57% | viability, T/C [18] 6.74% | viability, T/C [24] 5.37% | viability, T/C [36] 2.74% | viability, T/C [42] 2.21%
< 0.0316 µM: IC50 [3] | IC50 [4] | IC50 [5] | IC50 [6]

CCCS(=O)(=O)Nc1ccc(F)c(C(=O)c2c[nH]c3ncc(-c4ccc(Cl)cc4)cc23)c1F
8.3 µM and 6.87 µM: IC50 (curve of compound)
inactive: viability, T/C (compound 0.0316 µM) 99.6% and 110% | viability, T/C (compound 0.1 µM) 103% and 101% | viability, T/C (compound 0.316 µM) 112% and 105% | viability, T/C (compound 1 µM) 102% and 103% | viability, T/C (compound 3.16 µM) 108% and 101% | viability, T/C (compound 10 µM) 39.4% and 25.2%

CC(C)CC(NC(=O)C(Cc1ccccc1)NC(=O)c1cnccn1)B(O)O (configuration not stated)
inactive: viability, T/C (compound 0.000949 µM) 106% and 104% | viability, T/C (compound 0.003 µM) 47.9% and 34.1%
0.00288 µM and 0.00231 µM: IC50 (curve of compound)
active: viability, T/C (compound 0.00949 µM) 0.32% and 0.38% | viability, T/C (compound 0.03 µM) 0.21% and 1.51% | viability, T/C (compound 0.0949 µM) 0.12% and 2.95% | viability, T/C (compound 0.3 µM) 0.11% and 1.42%

CC(Nc1ccc2c(c1)OCCn1cc(N3C(=O)OCC3C(F)F)nc1-2)C(N)=O (configuration not stated) + CN1CCN(c2cc(C(=O)Nc3cc4cc(-c5cnn(C)c5)ccc4cn3)ccn2)CC1
> 10 µM: IC50 [1]
active: viability, T/C [19] 1.28% | viability, T/C [20] 1.34% | viability, T/C [21] 0.74% | viability, T/C [22] 0.59% | viability, T/C [23] 1.78% | viability, T/C [24] 0.43% | viability, T/C [25] 0.08% | viability, T/C [26] 0.11% | viability, T/C [27] 3.02% | viability, T/C [28] 0.1% | viability, T/C [29] 0.88% | viability, T/C [30] 0.07% | viability, T/C [31] 0.11% | viability, T/C [32] 0.14% | viability, T/C [33] 0.15% | viability, T/C [34] 0.13% | viability, T/C [35] 0.13% | viability, T/C [36] 0.38% | viability, T/C [37] 3.01% | viability, T/C [38] 0.2% | viability, T/C [39] 0.2% | viability, T/C [40] 0.22% | viability, T/C [41] 0.21% | viability, T/C [42] 0.23%
inactive: viability, T/C [7] 91.9% | viability, T/C [8] 82.3% | viability, T/C [9] 81.4% | viability, T/C [10] 68.3% | viability, T/C [11] 64.8% | viability, T/C [12] 53.1% | viability, T/C [13] 67.4% | viability, T/C [14] 60.2% | viability, T/C [15] 49.9% | viability, T/C [16] 41.8% | viability, T/C [17] 34% | viability, T/C [18] 30.2%
< 0.0316 µM: IC50 [3] | IC50 [4] | IC50 [5] | IC50 [6]
0.332 µM: IC50 [2]

CCCS(=O)(=O)Nc1ccc(F)c(C(=O)c2c[nH]c3ncc(-c4ccc(Cl)cc4)cc23)c1F + CNC(=O)c1ccc(Nc2nc(OC3CCCC3)c3c(-c4ccc5nc(C)oc5c4)c[nH]c3n2)c(OC)c1
7.25 µM: IC50 [2]
< 0.0316 µM: IC50 [4] | IC50 [5] | IC50 [6]
0.0316 µM: IC50 [3]
6.96 µM: IC50 [1]
inactive: viability, T/C [7] 96% | viability, T/C [8] 107% | viability, T/C [9] 102% | viability, T/C [10] 126% | viability, T/C [11] 107% | viability, T/C [12] 23.8% | viability, T/C [13] 97.5% | viability, T/C [14] 106% | viability, T/C [15] 111% | viability, T/C [16] 111% | viability, T/C [17] 109% | viability, T/C [18] 27.9% | viability, T/C [19] 48.2% | viability, T/C [20] 45.2% | viability, T/C [21] 45.5% | viability, T/C [22] 51.2% | viability, T/C [23] 53% | viability, T/C [24] 14.4% | viability, T/C [25] 32.2% | viability, T/C [26] 33.6% | viability, T/C [27] 33% | viability, T/C [28] 37% | viability, T/C [29] 32% | viability, T/C [30] 12.9% | viability, T/C [31] 27.9% | viability, T/C [32] 27.3% | viability, T/C [33] 31.6% | viability, T/C [34] 36.7% | viability, T/C [35] 29.7% | viability, T/C [36] 10.4% | viability, T/C [37] 26.2% | viability, T/C [38] 23.9% | viability, T/C [39] 25.9% | viability, T/C [40] 29.4% | viability, T/C [41] 31.9% | viability, T/C [42] 9.04%

— PubChem BioAssay AID2060618 (Molecular Pharmacology Branch, DTP, NCI, 2025)
